Experiments:
SHP-77 xenograft tumor = assay: SHP-77 SCLC xenograft efficacy study; type: in vivo; conditions: for mean tumor growth inhibition (TGI): daily 30 mg/kg p.o., 14 days treatment, SHP-77 xenograft
Source text: The purpose of the study was to assess the anti-tumor activity in difficult KRAS mutated xenograft tumor model using SHP-77 (small cell lung cancer, SCLC; ATCC CRL-2195) by examining the time-dependent effects on MAPK pathway modulation and tumor suppression post-administration of Example 24 and reference compound A122.
Female CB17-SCID mice at 6-8 weeks old from Vital River Co., LTD. were used for these studies. In order to generate subcutaneous xenograft tumors, each mouse was inoculated at the right flank with tumor cells in 100 μL of PBS and Matrigel matrix in the right hind flank with 1×10^7 cells. Mouse health was monitored daily, and caliper measurements began when tumors were palpable. Tumor volume measurements were determined utilizing the formula 0.5×L×W^2 in which L refers to length and W refers to width of each tumor. When tumors reached an average tumor volume of approximately 100-200 mm^3 for efficacy study and 300-500 mm^3 for single-dose PK/PD study, mice were randomized into treatment groups.
Mice were treated by oral gavage at 10 mg/kg with either vehicle consisting of DMSO: Solutol HS15: water=10:10:80 (% v/v/v) or compounds (Example 24, A122) in vehicle at indicated doses. For efficacy studies, animals were orally administered daily, tumor volumes and body weights were measured 3 times per week. Study day on efficacy plots indicates the day after which compound treatment was initiated. For single-dose PK/PD study, at the indicated time points after a single dose of Example 24 at the indicated dose levels, tumor samples were collected for PD analysis. RNA extraction and analysis of DUSP6 levels by in tumor tissue were performed as described in Example 134.

KRAS G12V-BRAF complex = KRAS G12V-BRAF complex (Homo sapiens (Human), UniProt P01116+P62937, G12V); assay: KRAS G12V-BRAF with CYPA interaction assay (TR-FRET, selectivity test, Example 132); type: biochemical
Procedure: In this example, TR-FRET was used to measure the compound or compound-CYPA dependent disruption of the KRAS G12V-BRAF complex to assess inhibition efficacy. The IC50 ratio between WT KRAS/HRAS/NRAS and KRAS G12V mutant was calculated as selective index, which indicated tolerability and safety profile. Disruption of WT KRAS/HRAS/NRAS-BRAF complex by compounds was detected respectively. In assay buffer containing 25 mM HEPES (PH-7.4,4-(2-hydroxyethyl)-1-piperazineethanesulfonic acid, Thermo, 15630080), 0.002% Tween20, 0.1% BSA, 100 mM NaCl, 5 mM MgCl2, 10 μM GMPPNP (Guanosine 5′-[β,γ-imido]triphosphate trisodium salt hydrate, Sigma, G0635), tagless CYPA and GMPPNP loaded 6His-RAS proteins, and GST-BRAF^RBD were mixed in a well of a 384-well assay plate at final concentrations of 50 nM, 6.25 nM and 1 nM, respectively. Compound was present in plate wells as a 16-point 3-fold dilution series starting at a final concentration of 10 μM and incubated for 3 hours. A mixture of MAb Anti-6His-XL665 (Cisbio, 61HISXLB) and Mab anti-GST-TB cryptate (Cisbio, 61GSTTLB) was then added at a final concentration of 6.67 nM and 0.21 nM, respectively, and the plate was incubated for an additional 1.5 hours. TR-FRET signal was read on a PHERstar FSX microplate reader (Ex320 nm, Em 665/615 nm). Compounds that facilitate disruption of the RAS-BRAF complex were identified as those eliciting a decrease in the TR-FRET ratio relative to DMSO control wells.

hERG potassium channel = hERG potassium channel (Homo sapiens (Human), UniProt Q12809); assay: hERG potassium channel assay (manual patch clamp, CHO cells); type: cell-based; conditions: for IC50 / IC20: 34° C., manual patch, CHO cells; for IC20: human, CHO cells stably transfected with hERG channel
Procedure: The purpose of the test was to screen compounds for the activity on hERG channels as a non-clinical cardiac safety evaluation.
Advanced hERG experiments were performed at near-physiological temperature (34° C.) by HEKA EPC10 manual patch system (heka elektronik, EPC10 amplifier). The CHO cells (B′SYS GmbH) stably transfected hERG channel were initially held at −80 mV, depolarized to voltages between −40 mV (100 ms) to 20 mV (500 ms) to activate the hERG outward currents, and then repolarized to −40 mV (500 ms) to record the hERG tail currents, with an interpulse interval of 15s. The recording environment included: Extracellular solution (in mM): 150 NaCl, 4 KCl, 1.2 CaCl2), 1 MgCl2 and 10 HEPES; pH adjusted to 7.2-7.4 with 5 M NaOH; Intracellular solution (in mM): 125 KCl, 10 NaCl, 5 EGTA, 10 HEPES, 0.1 Na2GTP and 5 MgATP; pH adjusted to 7.2 with 1 M KOH. Current inhibitions in the presence of more than 4 concentrations in quadruplicate were used to fit hERG IC50 by Graphpad prism V8.0.

CYPA = CYPA (Homo sapiens (Human), UniProt P62937); assay: CYPA binding analysis by surface plasmon resonance (SPR)
Source text: The compounds of this invention created a tri-complex involving the active RAS protein and CYPA, necessitating the initial formation of a binary complex through the compound's interaction with CYPA. The stability of the drug-target complex, as indicated by its equilibrium dissociation constant (KD), is thought to influence the length of target engagement, which in turn could lead to a prolonged effect in the washout experiments. Therefore, the objective of this study is to evaluate the binding kinetics of the compounds with CYPA to determine the stability of the CYPA-compound binary complex and to evaluate whether this stability correlates with the sustained inhibition of the target.
All SPR experiments were conducted on a Biacore 8K+ instrument (Cytiva). Recombinant biotinylated CYPA protein with a C-terminal AVI tag was purified and immobilized on flow cell 2 of SA chip (Cytiva, BR100531), with the flow cell 1 as the blank reference. The running buffer was HBS-P+ Buffer (Cytiva, BR100827, 0.01 M HEPES pH 7.4,0.15 M NaCl, 0.05% v/v Surfactant P20), and the flow rate was 10 μL/min. The immobilization level was achieved to about 1800 response units (RU). Compounds were 3-fold serially diluted to 1.5-3333 nM using HBS-P+Buffer with a final DMSO concentration of 1.5%, and then loaded to flow through the chip surface at a rate of 30 μL/min with HBS-P+Buffer containing 1.5% DMSO as the running buffer. Experiments were performed at 25° C. The contact time and dissociation time were set to 60 s and 200 s, respectively. After binding and dissociation of each sample, the chip was regenerated using 1 M NaCl with a short contact time of 19 s at a rate of 60 μL/min. The sensorgrams were analyzed using Biacore Insight Evaluation software with 1:1 kinetics binding model to determine the association rate constant (kon), dissociation rate constant (koff) and equilibrium dissociation constant (KD).

hERG potassium channel, sequence (Q12809 whole entry): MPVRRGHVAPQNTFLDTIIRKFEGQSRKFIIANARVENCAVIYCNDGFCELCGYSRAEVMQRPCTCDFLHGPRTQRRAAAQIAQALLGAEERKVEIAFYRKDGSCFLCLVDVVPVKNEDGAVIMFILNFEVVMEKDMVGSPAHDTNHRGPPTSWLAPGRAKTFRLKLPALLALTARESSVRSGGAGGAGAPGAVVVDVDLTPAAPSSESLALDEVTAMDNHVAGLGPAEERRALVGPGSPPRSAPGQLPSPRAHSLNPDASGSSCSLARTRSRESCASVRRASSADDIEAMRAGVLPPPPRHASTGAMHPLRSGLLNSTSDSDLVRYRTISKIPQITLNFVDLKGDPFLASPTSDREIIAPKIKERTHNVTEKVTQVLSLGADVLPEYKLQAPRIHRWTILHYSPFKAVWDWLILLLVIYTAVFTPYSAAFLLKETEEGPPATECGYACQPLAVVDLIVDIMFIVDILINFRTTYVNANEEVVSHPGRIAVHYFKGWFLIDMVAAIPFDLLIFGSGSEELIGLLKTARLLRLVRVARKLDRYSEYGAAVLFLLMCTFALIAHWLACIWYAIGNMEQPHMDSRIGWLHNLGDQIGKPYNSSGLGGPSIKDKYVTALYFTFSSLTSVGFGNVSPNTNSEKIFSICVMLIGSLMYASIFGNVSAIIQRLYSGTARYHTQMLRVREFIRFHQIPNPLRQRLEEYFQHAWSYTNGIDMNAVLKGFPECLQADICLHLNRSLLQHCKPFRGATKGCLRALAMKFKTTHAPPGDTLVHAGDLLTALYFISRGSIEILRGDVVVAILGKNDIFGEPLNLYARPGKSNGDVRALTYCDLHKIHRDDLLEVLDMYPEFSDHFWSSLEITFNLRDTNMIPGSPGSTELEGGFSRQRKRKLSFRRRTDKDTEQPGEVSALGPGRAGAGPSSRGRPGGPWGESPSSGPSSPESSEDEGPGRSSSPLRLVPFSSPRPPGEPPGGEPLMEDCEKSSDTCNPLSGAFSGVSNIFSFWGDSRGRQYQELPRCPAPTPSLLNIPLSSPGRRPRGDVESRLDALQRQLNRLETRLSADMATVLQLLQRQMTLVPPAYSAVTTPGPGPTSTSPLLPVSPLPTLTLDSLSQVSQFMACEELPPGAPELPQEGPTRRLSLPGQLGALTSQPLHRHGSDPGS
CYPA, sequence (P62937 whole entry): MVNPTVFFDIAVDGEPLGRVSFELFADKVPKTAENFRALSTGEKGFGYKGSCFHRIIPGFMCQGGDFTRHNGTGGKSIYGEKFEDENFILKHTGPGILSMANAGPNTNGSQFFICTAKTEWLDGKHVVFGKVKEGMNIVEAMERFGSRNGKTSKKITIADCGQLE
KRAS G12V-BRAF complex, sequence (P01116-2 other isoform, or with tags, fused parts or gaps G12V): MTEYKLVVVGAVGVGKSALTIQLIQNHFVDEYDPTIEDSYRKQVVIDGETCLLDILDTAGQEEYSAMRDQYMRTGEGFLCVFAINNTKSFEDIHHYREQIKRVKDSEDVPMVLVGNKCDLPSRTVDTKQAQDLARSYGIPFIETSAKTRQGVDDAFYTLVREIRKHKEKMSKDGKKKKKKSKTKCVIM
KRAS G12V-BRAF complex, sequence (P62937 whole entry): as the sequence (P62937 whole entry) above

Compound	mean tumor growth inhibition (TGI) (SHP-77 xenograft tumor) [%]	tolerability based on body weights (SHP-77 xenograft tumor; daily administration at 30 mg/kg, SHP-77 xenograft mice)	IC50 (KRAS G12V-BRAF complex) [nM]	fold higher hERG IC20 compared to A122 (hERG potassium channel) [fold]	fold higher hERG IC20 compared to A252 (hERG potassium channel) [fold]	IC50 (hERG potassium channel) [µM]	IC20 (hERG potassium channel) [µM]	fold lower KD compared to A122 (CYPA) [fold]	fold lower koff compared to A122 (CYPA) [fold]	Kd (CYPA; SPR, 25° C., immobilized CYPA) [nM]	koff (CYPA; SPR, 25° C., immobilized CYPA) [s⁻¹]	kon (CYPA; SPR, 25° C., immobilized CYPA) [M⁻¹ s⁻¹]
CO[C@@H](C)c1ncc(N2CCN(C)CC2)cc1-c1c2c3cc(cc4c3n1CCC4)-c1csc(n1)C[C@H](NC(=O)[C@H]1[C@H](C)[C@@H]1C)C(=O)N1CCC[C@H](N1)C(=O)OCC(C)(C)C2 (atropisomer, axis not shown; (M)) [Example 24, (1r,2R,3S)-N-[(7S,13S)-(20M)-20-[2-[(1S)-1-methoxyethyl]-5-(4-methylpiperazin-1-yl)-3-pyridyl]-17,17-dimethyl-8,14-dioxo-15-oxa-4-thia-9,21,30,31-tetrazahexacyclo[23.3.1.1^2,5.1^9,13.0^19,27.0^21,26]hentriaconta-1 (28),2,5 (31), 19,25 (29),26-hexaen-7-yl]-2,3-dimethyl-cyclopropanecarboxamide]	70	well-tolerated	7	3	4	63.7	13.8	2.3	2.9	13	0.019	1.4e+06
CCn1c(-c2cc(N3CCN(C)CC3)cnc2[C@H](C)OC)c2c3cc(ccc31)-c1csc(n1)C[C@H](NC(=O)[C@H]1C[C@@H]1C)C(=O)N1CCC[C@H](N1)C(=O)OCC(C)(C)O2 [Example A122, reference compound]	43	–	8	–	–	16.9	4.6	–	–	–	0.056	1.9e+06
